Results on 28 compounds are retold here after patent US20240252477A1, “NLRP3 INFLAMMASOME-INHIBITING COMPOUNDS AND THE USE THEREOF” (UNIVERSITA' DEGLI STUDI DI TORINO (60%), priority 2021, published 2024).

The structures appear in SMILES notation.

One series concerns the target T1, NLRP3 inflammasome (Homo sapiens, UniProt Q96P20).
T1 construct: The THP-1 cells were differentiated into macrophages by treating them with PMA 50 nM; endogenous in cells; host or cells: THP-1 (human monocytic leukaemia line), PMA-differentiated, primed with LPS, triggered with ATP
Description: NLRP3-dependent pyroptosis (LDH release) in PMA-differentiated THP-1 cells stimulated with LPS/ATP. The note with it: compounds at 10 μM for 1 hour; differentiated THP-1, LPS 10 μg/mL 4 hours, ATP 1.5 hours; read-out: Pyroptosis inhibition (% ± SEM). Format: cell-based. As to the method:
THP-1 cells, a monocytic human cell line derived from the peripheral blood of a patient suffering from acute monocytic leukaemia (www.atcc.org), were cultured in RPMI 1640 medium (Aurogene, Rome, Italy), with the addition of foetal bovine serum (10%, Aurogene), L-glutamine (2 mM, Aurogene), penicillin (100 IU/ml, Aurogene) and streptomycin ([…], Aurogene). The medium was changed every 2-3 days, and the cells were maintained in an incubator at 37° C., with 5% CO2, and with suitable humidity.
The cells were seeded in 48-well plates (90.000 cells/well), and differentiated with phorbol 12-myristate 13-acetate (PMA—50 nM, 24 hours; Sigma-Aldrich). On the next day, the differentiated THP-1s were washed twice with the balanced saline solution phosphate-buffered saline (PBS), and stimulated with lipopolysaccharide (LPS) (10 μg/mL, 4 hours; Sigma-Aldrich), prepared in serum-free medium. After 4 hours the cells were incubated with the compounds at the concentration of 10 μM for 1 hour, operating in triplicate; INF176 and INF177 were tested at three different concentrations: […]. Finally, the cells were stimulated with ATP 5 mm for 1.5 hours. The supernatants were then harvested for the subsequent analyses.
LDH release into the supernatant obtained as described above was quantified using the CytoTox 96 nonradioactive cytotoxicity assay (Promega Corporation, Madison, […], USA), a colorimetric assay wherein LDH activity is measured with an NADH-dependent enzymatic reaction:
Briefly, an equal volume of CytoTox Reagent was added to the supernatant and, after 30 minutes' incubation, the reaction was stopped by adding the stop solution. The formazan concentration was determined by measuring absorbance, using a microplate reader (Victor X4—EnSight, PerkinElmer, Waltham, MA, USA), at λ=490 nm. Cell death was expressed according to the manufacturer's instructions.
The compound INF176 was tested to measure its ability to inhibit NLRP3-dependent cell pyroptosis in human macrophages, using the experimental protocol previously published [Cocco et al. 2017].
The THP-1 cells were differentiated into macrophages by treating them with PMA 50 nM (24 hours) and then with LPS (10 μg/mL) for 4 hours. The cells were treated with the compound (10 μM) for 1 hour. Pyroptosis was induced by treatment with ATP 5 mm. After 90 minutes, cell death was evaluated by measuring the LDH level in the cell supernatant using the CytoTox 96 Non-Radioactive Cytotoxicity Assay (Promega Corporation, Madison, […], USA).

A short description of another series: Cytotoxicity (MTT assay). The format is cell-based, human. The following applies: human; THP-1 cells, 72 hours' incubation. Here is the method:
The THP-1 cells were seeded in a 96-well plate (15.000 cells/well) and incubated with the test compounds at four different concentrations (0.1, 1, 10 and 100 μM), operating in triplicate. The cells were placed in an incubator at 37° C., with 5% CO2, and cell viability was measured after 72 hours' incubation, using the MTT assay. This is a colorimetric assay, based on conversion of water-soluble 3-(4,5-dimethylthiazol-2-yl)-2,5-diphenyltetrazolium bromide (MTT; Sigma-Aldrich) to a violet-coloured insoluble formazan, by the mitochondrial dehydrogenase present in the live cells. The formazan is solubilised in acidified isopropanol, and the concentration is determined by measuring absorbance with a microplate reader (Victor X4—Ensight, PerkinElmer) at λ=570 nm. Viability was expressed as a percentage of the viability of the control cells, which were either untreated or treated with the carrier. The IC50 was calculated with the Graph Pad Prism software.
For orientation: Tetrazolium assays rely on reduction of a dye to a coloured formazan, in cell work by metabolically active cells.

T1 sequence (Q96P20 whole entry): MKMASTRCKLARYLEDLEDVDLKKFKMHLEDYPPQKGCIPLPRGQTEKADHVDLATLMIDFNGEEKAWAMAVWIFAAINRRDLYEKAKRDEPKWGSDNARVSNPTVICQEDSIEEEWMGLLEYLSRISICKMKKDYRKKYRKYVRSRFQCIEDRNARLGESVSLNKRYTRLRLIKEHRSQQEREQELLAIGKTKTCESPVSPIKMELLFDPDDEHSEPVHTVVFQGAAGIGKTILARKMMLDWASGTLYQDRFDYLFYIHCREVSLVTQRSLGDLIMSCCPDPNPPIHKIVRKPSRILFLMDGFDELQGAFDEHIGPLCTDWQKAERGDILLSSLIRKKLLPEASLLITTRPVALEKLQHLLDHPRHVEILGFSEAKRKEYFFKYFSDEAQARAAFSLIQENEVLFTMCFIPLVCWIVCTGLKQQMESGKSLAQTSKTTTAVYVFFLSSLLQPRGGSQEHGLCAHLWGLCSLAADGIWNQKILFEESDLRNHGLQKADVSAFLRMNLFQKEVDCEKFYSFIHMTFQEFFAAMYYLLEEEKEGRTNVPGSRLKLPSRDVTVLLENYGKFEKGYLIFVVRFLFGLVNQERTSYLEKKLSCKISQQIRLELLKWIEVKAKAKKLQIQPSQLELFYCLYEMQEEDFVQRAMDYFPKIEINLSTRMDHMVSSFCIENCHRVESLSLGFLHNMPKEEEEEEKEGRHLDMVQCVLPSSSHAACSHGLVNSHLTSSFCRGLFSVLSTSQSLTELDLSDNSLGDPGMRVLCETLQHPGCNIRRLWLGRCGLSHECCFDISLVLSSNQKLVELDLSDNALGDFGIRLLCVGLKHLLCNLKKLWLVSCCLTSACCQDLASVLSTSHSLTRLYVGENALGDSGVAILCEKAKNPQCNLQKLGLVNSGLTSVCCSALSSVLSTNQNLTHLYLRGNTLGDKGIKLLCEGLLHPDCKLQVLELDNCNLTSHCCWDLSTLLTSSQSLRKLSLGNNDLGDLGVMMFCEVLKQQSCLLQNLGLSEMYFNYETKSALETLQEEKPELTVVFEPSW

As to `CCOC(=O)[C@@H]1CCCN(C(=O)[C@@H](CSc2ccccc2)Cc2ccccc2Cl)C1` (racemic) [INF185, ethyl 1-(2-(2-chlorobenzyl)-3-(phenylthio)propanoyl)piperidine-3-carboxylate], the inhibition at 10 µM at NLRP3 inflammasome was under 10%.
The compound `CCOC(=O)/C(=C/c1ccccc1Cl)CSCC(NC(C)=O)C(=O)O` (centres unmarked) [INF85] returned an IC50 at 72 h in “Cytotoxicity (MTT assay)” of over 100 µM. Moreover, the inhibition at 10 µM on NLRP3 inflammasome was 21.3 ± 4.6%.
In turn, `CCOC(=O)[C@H](CSc1ccccc1)[C@H](O)c1ccccc1Cl` (mixture of isomers) [INF38a, Ethyl(2S,3S)-3-(2-chlorophenyl)-3-hydroxy-2-(phenylsulphanylmethyl)-propanoate and ethyl(2S,3R)-3-(2-chlorophenyl)-3-hydroxy-2-(phenylsulphanylmethyl)propanoate] returned an IC50 at 72 h in “Cytotoxicity (MTT assay)” of over 100 µM. Besides, the inhibition at 10 µM at NLRP3 inflammasome is 26.9 ± 4.9%.
Taken in the same sequence, the figures for `CCOC(=O)/C(=C/c1ccccc1Cl)CSc1ccccc1` [INF42, ethyl (Z)-3-(2-chlorophenyl)-2-((phenylthio)methyl)acrylate] were over 100 µM and 69.1 ± 2.2%.
The matching figures for `O=C(O)/C(=C/c1ccccc1Cl)CSC1CCCCC1` [INF86, (Z)-3-(2-chlorophenyl)-2-((cyclohexylthio)methyl)acrylic acid]: over 100 µM and under 10%.
Turning to `CCOC(=O)/C(=C/c1ccccc1Cl)COc1ccccc1` [INF57, (E)-ethyl 3-(2-chlorophenyl)-2-(phenoxymethyl)acrylate], in the series “Cytotoxicity (MTT assay)”, the IC50 at 72 h was over 100 µM. Further, at NLRP3 inflammasome, the inhibition at 10 µM was 34.5 ± 0.3%.
On to `CCOC(=O)[C@@H](C[S+]([O-])c1ccccc1)[C@H](O)c1ccccc1Cl` (mixture of isomers) [INF44, ethyl 3-(2-chlorophenyl)-3-hydroxy-2-((phenylsulphinyl)methyl)propanoate], for which, in the series “Cytotoxicity (MTT assay)”, the IC50 at 72 h is over 100 µM. Also, on NLRP3 inflammasome, the inhibition at 10 µM was under 10%.
`CCOC(=O)[C@@H](CS(=O)(=O)c1ccccc1)[C@H](O)c1ccccc1Cl` (stereo in doubt) [INF45, ethyl 3-(2-chlorophenyl)-3-hydroxy-2-((phenylsulphonyl)methyl)propanoate] had a 50% inhibitory concentration (IC50) at 72 h in the series “Cytotoxicity (MTT assay)” of over 100 µM. Further, on NLRP3 inflammasome, the inhibition at 10 µM stood at 45.8 ± 6.7%.
Turning to `CCOC(=O)C1CCN(C(=O)C(CSc2ccccc2)Cc2ccccc2Cl)CC1` (centres unmarked) [INF186, ethyl 1-(2-(2-chlorobenzyl)-3-(phenylthio)propanoyl)piperidine-4-carboxylate], the IC50 at 72 h in the series “Cytotoxicity (MTT assay)” amounted to 94.6 ± 4 µM. Further, the inhibition at 10 µM on NLRP3 inflammasome is under 10%.
As for `CCOC(=O)/C(=C/c1ccccc1Cl)CS(=O)(=O)c1ccccc1` [INF51, ethyl (Z)-3-(2-chlorophenyl)-2-((phenylsulphonyl)methyl)acrylate], the IC50 at 72 h in the series “Cytotoxicity (MTT assay)” was determined as 20.1 ± 14.3 µM. Besides, the inhibition at 10 µM on NLRP3 inflammasome is 38.9 ± 4.5%.
The compound `CCOC(=O)/C(=C/c1ccccc1Cl)C[S+]([O-])c1ccccc1` (centres unmarked) [INF50, (Z)-ethyl 3-(2-chlorophenyl)-2-((phenylsulphinyl)methyl)acrylate] displayed an IC50 at 72 h in “Cytotoxicity (MTT assay)” of 9.7 ± 0.2 µM. Moreover, the inhibition at 10 µM on NLRP3 inflammasome is 41.1 ± 2.5%.
`CCOC(=O)C1CCCN(C(=O)C(CSC2CCCCC2)Cc2ccccc2Cl)C1` (centres unmarked) [INF192, ethyl 1-(2-(2-chlorobenzyl)-3-(cyclohexylthio)propanoyl)piperidine-3-carboxylate] returned an IC50 at 72 h in “Cytotoxicity (MTT assay)” of 59.8 ± 0.7 µM. Besides, the inhibition at 10 µM on NLRP3 inflammasome amounted to 62.2 ± 9.78%.
Regarding `CCOC(=O)C1CCCN(C(=O)/C(=C/c2cccc(Cl)c2)CSc2ccccc2)C1` (centres unmarked) [INF230, ethyl (Z)-1-(3-(3-chlorophenyl)-2-((phenylthio)methyl)acryloyl)piperidine-3-carboxylate], at NLRP3 inflammasome, the inhibition at 10 µM came out at 39 ± 15.4%.
For the compound `CCOC(=O)C(Cc1ccccc1Cl)CS(=O)(=O)C1CCCCC1` (centres unmarked) [INF111, ethyl 2-(2-chlorobenzyl)-3-(cyclohexylsulphonyl)propanoate], it took 98.1 ± 4.8 µM to reach half-maximal inhibition in “Cytotoxicity (MTT assay)” (IC50 at 72 h). For the same compound, the inhibition at 10 µM at NLRP3 inflammasome was under 10%.
Consider `CCOC(=O)C1CCN(C(=O)/C(=C/c2ccccc2Cl)CSc2ccccc2)CC1` [INF180, ethyl (Z)-1-(3-(2-chlorophenyl)-2-((phenylthio)methyl)acryloyl)piperidine-4-carboxylate], for which the half-maximal inhibitory concentration (IC50) at 72 h in “Cytotoxicity (MTT assay)” is over 100 µM. Besides, the inhibition at 10 µM on NLRP3 inflammasome turned out to be 13.8 ± 7.1%.
For `CCOC(=O)[C@H]1CCCN(C(=O)/C(=C/c2ccccc2Cl)CSc2ccccc2)C1` [INF203, ethyl (S,Z)-1-(3-(2-chlorophenyl)-2-((phenylthio)methyl)acryloyl)piperidine-3-carboxylate], the inhibition at 10 µM on NLRP3 inflammasome came to 14.4 ± 4.3%.
As for `CCOC(=O)[C@@H](CSc1ccccc1)[C@H](O)c1ccccc1Cl` (mixture of isomers) [INF38s, Ethyl(2S,3S)-3-(2-chlorophenyl)-3-hydroxy-2-(phenylsulphanylmethyl)-propanoate and ethyl(2R,3R)-3-(2-chlorophenyl)-3-hydroxy-2-(phenylsulphanylmethyl)propanoate], the IC50 at 72 h in the series “Cytotoxicity (MTT assay)” is over 100 µM. Also, the inhibition at 10 µM on NLRP3 inflammasome was determined as 23.5 ± 4.2%.
The matching figures for `CCOC(=O)/C(=C/c1ccccc1Cl)CSC1CCCCC1` [INF56, (Z)-ethyl 3-(2-chlorophenyl)-2-((cyclohexylthio)methyl)acrylate]: over 100 µM and 41.6 ± 3.9%.
With `CCOC(=O)[C@H]1CCCN(C(=O)[C@@H](CSc2ccccc2)Cc2ccccc2Cl)C1` (racemic) [INF184+INF185, ethyl 1-(2-(2-chlorobenzyl)-3-(phenylthio)propanoyl)piperidine-3-carboxylate], inhibition in the series “Cytotoxicity (MTT assay)” was half-maximal at 75.4 ± 2.6 µM (IC50 at 72 h).
`CCOC(=O)[C@@H](CN1CCCC1)[C@H](O)c1ccccc1Cl` (racemic) [INF37 syn]: the inhibition at 10 µM on NLRP3 inflammasome is 32.2 ± 5.7%.
As to `CCOC(=O)C(Cc1ccccc1Cl)C[S+]([O-])c1ccccc1` (centres unmarked) [INF48, ethyl 2-(2-chlorobenzyl)-3-(phenylsulphinyl)propanoate], the IC50 at 72 h in the series “Cytotoxicity (MTT assay)” was over 35.1 µM. Also, the inhibition at 10 µM on NLRP3 inflammasome was found to be 33.6 ± 1.2%.
Taken in the same sequence, the figures for `CCOC(=O)C1CCN(C(=O)/C(=C/c2ccccc2Cl)CSC2CCCCC2)CC1` [INF188, ethyl (Z)-1-(3-(2-chlorophenyl)-2-((cyclohexylthio)methyl)acryloyl)piperidine-4-carboxylate] were 58.6 ± 5.3 µM and under 10%.
For the compound `CCCNC(=O)/C(=C/c1ccccc1Cl)CSc1ccccc1` [INF82, (Z)-3-(2-chlorophenyl)-2-((phenylthio)methyl)-N-propylacrylamide], 63.3 ± 1.3 µM corresponded to half-maximal inhibition in “Cytotoxicity (MTT assay)” (IC50 at 72 h). In addition, the inhibition at 10 µM on NLRP3 inflammasome came out at 19 ± 4.1%.
The compound `CCOC(=O)C1CCCN(C(=O)/C(=C/c2ccccc2Cl)CSC2CCCCC2)C1` (centres unmarked) [INF194, ethyl (Z)-1-(3-(2-chlorophenyl)-2-((cyclohexylthio)methyl)acryloyl)piperidine-3-carboxylate] came in with a half-inhibitory concentration (IC50) at 72 h in “Cytotoxicity (MTT assay)” of 78.3 ± 10.2 µM. On NLRP3 inflammasome, the inhibition at 10 µM was under 10%.
`CCOC(=O)[C@@H]1CCCN(C(=O)/C(=C/c2ccccc2Cl)CSc2ccccc2)C1` [INF202, ethyl (R,Z)-1-(3-(2-chlorophenyl)-2-((phenylthio)methyl)acryloyl)piperidine-3-carboxylic acid]: the inhibition at 10 µM at NLRP3 inflammasome turned out to be 40.9 ± 1.2%.
Turning to `CCOC(=O)[C@H](CN1CCCC1)[C@H](O)c1ccccc1Cl` (stereo in doubt) [INF37 anti], on NLRP3 inflammasome, the inhibition at 10 µM amounted to 21.1 ± 2.9%.
Take `CCOC(=O)C(CN1CCCC1)C(O)c1ccccc1Cl` (stereo not drawn) [INF37 (syn), ethyl 3-(2-chlorophenyl)-3-hydroxy-2-(pyrrolidin-1-ylmethyl)propanoate]: the IC50 at 72 h in “Cytotoxicity (MTT assay)” was over 100 µM.
For `CCOC(=O)C1CCCN(C(=O)/C(=C/c2ccccc2[N+](=O)[O-])CSc2ccccc2)C1` (centres unmarked) [INF231, ethyl (Z)-1-(3-(2-nitrophenyl)-2-((phenylthio)methyl)acryloyl)piperidine-3-carboxylate], on NLRP3 inflammasome, the inhibition at 10 µM came to 32.6 ± 19.8%.

Usually inhibition stands for the percentage by which the read-out fell short of the control. The term IC50 denotes the concentration that inhibits the measured activity by half. A high value points to a need for much substance.
